For data set [1], the system named is adult subjects with brain volume loss (relapsing multiple sclerosis). Briefly: Percent change in brain volume from baseline (MRI, SIENA) in randomized double-blind study of ponesimod vs teriflunomide. The settings on record: for LS Mean difference in percent change in brain volume (Ponesimod 20 mg − Teriflunomide 14 mg) / LS Mean percent change in brain volume from baseline: Week 108; for brain volume loss (BVL) up to EOS: teriflunomide 14 mg. Format: in vivo, human. The procedure:
Main analysis set for efficacy: The Full Analysis Set (FAS) included all randomized subjects. Subjects were evaluated according to the treatment they were randomized to.
Efficacy variable/timepoint: The endpoint was brain volume loss up to the end of study (EOS). All available data up to EOS, regardless of treatment discontinuation was included (ITT approach).
Using a mixed model with linear time effect (adjusted for stratification factors, presence/absence of GD+T1 lesions at baseline, and normalized brain volume at baseline), the LS mean percent change from baseline to Week 108 in brain volume was −0.91% in the ponesimod 20 mg group (n=436) and −1.25% in the teriflunomide 14 mg group (n=434). The LS mean difference (ponesimod 20 mg—teriflunomide 14 mg) was 0.34% (95% CLs: 0.17, 0.50; p<0.0001).
Results of the analysis using a repeated measurements ANOVA model (MMRM) were consistent with that described above with respect to the mixed model with linear time effect.

Data set [2] shares this test system. The data set is described as follows: Reasons for premature treatment discontinuation in the study. The settings on record: for subjects discontinued due to AEs or tolerability related reasons / subjects discontinued due to efficacy related reasons: ponesimod 20 mg, teriflunomide 14 mg. Format: in vivo. As for the experimental part: A total of 1468 subjects were screened. Of those, 1133 subjects were randomized (567 to ponesimod 20 mg and 566 to teriflunomide 14 mg) across 162 sites in 28 countries, and 1131 subjects received at least one dose of study drug. The disposition of subjects is summarized in Table 1 and a summary of reasons (primary reason) for treatment discontinuation are shown in Table 2. Overall treatment and study discontinuation were balanced across both treatment arms. A total of 6.5% and 2.5% of the subjects discontinued due to AEs or tolerability related reasons in ponesimod 20 mg and teriflunomide 14 mg, respectively, while 1.9% and 4.3% discontinued due to efficacy related reasons. There were 2 deaths reported during the study—both on teriflunomide 14 mg.

For data set [3] the test system is unchanged. The data set is described as follows: Treatment-emergent adverse events, AESIs and deaths (Safety Set). Format: in vivo, human. The settings on record: Ponesimod 20 mg N = 565, Teriflunomide 14 mg N = 566. As for the experimental part:
The most common AESIs were reported for category hepatobiliary disorders/liver enzyme abnormality (25.7% vs 14.5% in ponesimod 20 mg compared to teriflunomide 14 mg, respectively), followed by category hypertension (10.1% vs 9.0%), and pulmonary events (8.0% vs 2.7%).

For data set [4] the test system is unchanged. The settings on record: human, in vivo. The source says: Based on the individual case review, most ALT/AST increases ≥3×ULN occurred as a single transient asymptomatic episode, resolving with continued treatment or after protocol mandated treatment discontinuation. All but one case of bilirubin increase ≥2×ULN occurred in subjects with pre-treatment bilirubin increases. One case of potential Hy's law occurred in a subject with pre-existing transaminase elevation (ALT>5×ULN), and the event fully resolved within 2 weeks after treatment discontinuation.

The test system is the same in data set [5]. The data set is described as follows: 12-lead ECG heart rate and first-dose monitoring on Day 1. The class given is in vivo, human. The conditions noted are these: for mean heart rate reduction compared to pre-dose: Day 1, 2-hours post dose, 12-lead ECG, ponesimod 20 mg arm, teriflunomide 14 mg; for subjects with asymptomatic post-dose HR≤40 bpm: Day 1, all had pre-treatment HR<55 bpm. As for the experimental part:
The incidence of treatment-emergent heart rate and rhythm (including hypotension) AESIs on Day 1 was higher in the ponesimod 20 mg arm (2.1%) than in the teriflunomide 14 mg arm (0.4%). However, the overall incidence of first dose AESI on Day 1 was low (2.1%) in ponesimod. None of these events were serious nor led to permanent discontinuation of study treatment. Discharge criteria at 4 hours post-dose were met for ca. 99% of subjects. […] ECG HR effect: nadir at 2 hours post-dose (siponimod—3-4 hours, fingolimod—around by 6 hours). Low incidence of low HR outliers (post-dose HR≤40 bpm), all 3 of them with a pre-treatment HR of <55 bpm, which is a known risk factor for post-dose bradycardia with S1P receptor modulators.
The mean heart rate reduction compared to pre-dose reached a maximum for ponesimod 20 mg at 2-hours post dose, −8.7 bpm compared to −1.7 bpm for teriflunomide 14 mg (FIG. 2).

The test system is the same in data set [6]. The data set is described as follows: Percent change in brain volume from baseline (MRI, SIENA) in randomized double-blind study of ponesimod vs teriflunomide. The conditions noted are these: Week 60. Format: in vivo, human.
The conditions of data set [7]: other S1P receptor modulators, given for comparison; cited from earlier work.
Setting [8] is: mixed model with linear time effect.
Where [9] appears, read: mixed model with linear time effect, Ponesimod 20 mg (436 subjects), Teriflunomide 14 mg (434 subjects).
Where [10] appears, read: repeated measurements ANOVA model (MMRM).
[11] abbreviates: repeated measurements ANOVA model (MMRM), Ponesimod 20 mg (418 subjects), Teriflunomide 14 mg (414 subjects).
Setting [12] is: ponesimod 20 mg, up to end of study.
Where [13] appears, read: Safety Set, Ponesimod 20 mg N = 565, Teriflunomide 14 mg N = 566.

The text below walks through data of patent US20230123588A1, “METHODS OF SLOWING BRAIN VOLUME LOSS” (ACTELION PHARMACEUTICALS LTD, priority 2020, published 2023).

In the case of `CCC/N=C1\S/C(=C\c2ccc(OC[C@H](O)CO)c(Cl)c2)C(=O)N1c1ccccc1C` [Ponesimod, (R)-5-[3-chloro-4-(2,3-dihydroxy-propoxy)-benz[Z]ylidene]-2-([Z]-propylimino)-3-o-tolyl-thiazolidin-4-one], in data set [1] (setting [8]), the “LS Mean difference in percent change in brain volume (Ponesimod 20 mg − Teriflunomide 14 mg)” value (shortened to “LS Mean difference in percent change”) is on record as 0.34%. The “LS Mean percent change in brain volume from baseline” value (“LS Mean percent change” for short) in data set [1] (setting [9]) is −0.91%. For the same compound, in data set [1] (setting [10]), the “LS Mean difference in percent change” value was determined as 0.34%. Further, in data set [1] (setting [11]), the “LS Mean percent change” value is −0.92%. The “reduction of brain volume loss up to EOS compared to teriflunomide 14 mg” value in data set [1] (ponesimod 20 mg) was “about 27%”. Besides, the “efficacy in slowing brain volume loss over teriflunomide (conclusion)” value in data set [1] (ponesimod 20 mg vs teriflunomide 14 mg) is “superior efficacy”. Besides, the “brain volume loss (BVL) up to EOS” value in data set [1] (setting [12]) is on record as −0.91%. The “difference in BVL up to EOS, ponesimod 20 mg vs teriflunomide 14 mg” value in data set [1] (up to end of study, p<0.0001) was determined as 0.34%. Besides, in data set [2] (setting [13]), the “Premature discontinuation: Death (number)” value amounted to 0 n; the “Premature discontinuation: Physician decision, Adverse event (number)” value was found to be 29 n; the “Premature discontinuation: Physician decision, Adverse event (percent)” value is “(5.1) %”; the “Premature discontinuation: Physician decision, Lack of efficacy/treatment failure (number)” value is on record as 4 n. Further, in data set [2] (setting [13]), the “Premature discontinuation: Physician decision, Lack of efficacy/treatment failure (percent)” value was “(0.7) %”; the “Premature discontinuation: Pre-specified study treatment discontinuation criteria (number)” value was determined as 12 n; the “Premature discontinuation: Pre-specified study treatment discontinuation criteria (percent)” value was “(2.1) %”; the “Premature discontinuation: Subject decision, Efficacy related (number)” value worked out at 7 n. For the same compound, in data set [2] (setting [13]), the “Premature discontinuation: Subject decision, Efficacy related (percent)” value is given as “(1.2) %”; the “Premature discontinuation: Subject decision, Tolerability related (number)” value stood at 8 n; the “Premature discontinuation: Subject decision, Tolerability related (percent)” value is given as “(1.4) %”. Further, in data set [2], the “subjects discontinued due to AEs or tolerability related reasons” value was 6.5% and the “subjects discontinued due to efficacy related reasons” value came to 1.9%. Further, the “Subject with at least one Fatal AE” value in data set [3] was 0 n (%). Moreover, in data set [4], the “proportion of subjects who experienced ALT increase >8×ULN” value was determined as 0.7% and the “proportion of subjects who experienced ALT increase ≥3×ULN” value was determined as 17.3%. Further, in data set [5], the “mean heart rate reduction compared to pre-dose” value is on record as −8.7 bpm and the “subjects with asymptomatic post-dose HR≤40 bpm” value is 3 subjects. In data set [5] (Day 1, first dose), the “2nd or higher degree AV block” value is given as “No 2nd or higher degree AV block was observed”, the “subjects meeting discharge criteria at 4 hours post-dose” value is reported as “ca. 99%” and the “time of ECG HR nadir (maximum mean heart rate reduction) post-dose” value amounted to 2 h. The “LS Mean difference in percent change” value in data set [6] (setting [8]) came to 0.08%. For the same compound, in data set [6] (setting [9]), the “LS Mean percent change” value was −0.45%. In data set [6] (setting [10]), the “LS Mean difference in percent change” value was 0.13%. In addition, the “LS Mean percent change” value in data set [6] (setting [11]) is −0.43%.

As to `C/C(O)=C(\C#N)C(=O)Nc1ccc(C(F)(F)F)cc1` [Teriflunomide], in data set [1] (setting [9]), the “LS Mean percent change” value is listed as −1.25%. In data set [1] (setting [11]), the “LS Mean percent change” value is listed as −1.26%. In data set [1] (setting [12]), the “brain volume loss (BVL) up to EOS” value is −1.25%. Besides, in data set [2] (setting [13]), the “Premature discontinuation: Death (number)” value worked out at 2 n; the “Premature discontinuation: Death (percent)” value is “(0.4) %”; the “Premature discontinuation: Physician decision, Adverse event (number)” value worked out at 9 n; the “Premature discontinuation: Physician decision, Adverse event (percent)” value is recorded as “(1.6) %”. Moreover, in data set [2] (setting [13]), the “Premature discontinuation: Physician decision, Lack of efficacy/treatment failure (number)” value amounted to 10 n; the “Premature discontinuation: Physician decision, Lack of efficacy/treatment failure (percent)” value is reported as “(1.8) %”; the “Premature discontinuation: Pre-specified study treatment discontinuation criteria (number)” value is 16 n; the “Premature discontinuation: Pre-specified study treatment discontinuation criteria (percent)” value is “(2.8) %”. In addition, in data set [2] (setting [13]), the “Premature discontinuation: Subject decision, Efficacy related (number)” value is 14 n; the “Premature discontinuation: Subject decision, Efficacy related (percent)” value is listed as “(2.5) %”; the “Premature discontinuation: Subject decision, Tolerability related (number)” value came out at 5 n; the “Premature discontinuation: Subject decision, Tolerability related (percent)” value was “(0.9) %”. Moreover, in data set [2], the “subjects discontinued due to AEs or tolerability related reasons” value came out at 2.5% and the “subjects discontinued due to efficacy related reasons” value was determined as 4.3%. Besides, the “Subject with at least one Fatal AE” value in data set [3] is reported as 2 (0.4) n (%). In addition, in data set [4], the “proportion of subjects who experienced ALT increase >8×ULN” value was determined as 2.1% and the “proportion of subjects who experienced ALT increase ≥3×ULN” value is listed as 8.3%. Moreover, in data set [5], the “mean heart rate reduction compared to pre-dose” value is on record as −1.7 bpm and the “subjects with asymptomatic post-dose HR≤40 bpm” value was “none”. For the same compound, the “LS Mean percent change” value in data set [6] (setting [9]) is −0.53%. Also, the “LS Mean percent change” value in data set [6] (setting [11]) was −0.55%.

Regarding `CCc1cc(/C(C)=N/OCc2ccc(C3CCCCC3)c(C(F)(F)F)c2)ccc1CN1CC(C(=O)O)C1` [siponimod], the “time of ECG HR nadir post-dose” value in data set [7] was 3 to 4 h.

Turning to `CCCCCCCCc1ccc(CCC(N)(CO)CO)cc1` [fingolimod], in data set [7], the “time of ECG HR nadir post-dose” value is ~6 h.
